Experimental data published in patent US20230031024A1, “SUBSTITUTED PYRIMIDINIUM COMPOUNDS FOR COMBATING ANIMAL PESTS” (BASF SE, priority 2018, published 2023).

Tests used:
Assay type in all cases: in vivo
Plutella xylostella = experiment: Diamond back moth (Plutella xylostella) cabbage leaf dip test, larval mortality; conditions: foliar, 3rd instar larvae, 72 hours after treatment, read-out: mortality in comparison with untreated controls
Protocol: B.2. Diamond back moth (Plutella xylostella)
The active compound is dissolved at the desired concentration in a mixture of 1:1 (vol:vol) distilled water: acetone. Surfactant (Alkamuls® EL 620) is added at a rate of 0.1% (vol/vol). The test solution is prepared at the day of use.
Leaves of cabbage were dipped in test solution and air-dried. Treated leaves were placed in petri dish enlined with moist filter paper and inoculated with ten 3rd instar larvae. Mortality was recorded 72 hours after treatment. Feeding damages were also recorded using a scale of 0-100%.

Anthonomus grandis = experiment: Boll weevil (Anthonomus grandis) microtiter plate diet test, egg and larval mortality; conditions: 120 h, egg and larval mortality after 5 days, read-out: mortality in comparison with untreated controls
Protocol: B.1. Boll weevil (Anthonomus grandis)
For evaluating control of boll weevil (Anthonomus grandis) the test unit consisted of 96-wellmicrotiter plates containing an insect diet and 5-10 A. grandis eggs.
The compounds were formulated using a solution containing 75% v/v water and 25% v/v DMSO. Different concentrations of formulated compounds were sprayed onto the insect diet at 5 μl, using a custom-built micro atomizer, at two replications.
After application, microtiter plates were incubated at about 25+1° C. and about 75+5% relative humidity for 5 days. Egg and larval mortality was then visually assessed.

Bemisia argentifolii = experiment: Silverleaf whitefly (Bemisia argentifolii) adults, sprayed cotton plant test; conditions: 72 h, 3 days after treatment, read-out: mortality in comparison with untreated controls
Excerpt: B.3 Silverleaf whitefly (Bemisia argentifolii) (adults)
The active compounds were formulated in cyclohexanone as a 10,000 ppm solution supplied in tubes. The tubes were inserted into an automated electrostatic sprayer equipped with an atomizing nozzle and they served as stock solutions for which lower dilutions were made in 50% acetone:50% water (v/v). A non-ionic surfactant (Kinetic®) was included in the solution at a volume of 0.01% (v/v).
Cotton plants at the cotyledon stage (one plant per pot) were sprayed by an automated electrostatic plant sprayer equipped with an atomizing spray nozzle. The plants were dried in the sprayer fume hood and then removed from the sprayer. Each pot was placed into a plastic cup and about 10 to 12 whitefly adults (approximately 3-5 days old) were introduced. The insects were collected using an aspirator and a nontoxic Tygon® tubing connected to a barrier pipette tip. The tip, containing the collected insects, was then gently inserted into the soil containing the treated plant, allowing insects to crawl out of the tip to reach the foliage for feeding. Cups were covered with a reusable screened lid. […] Mortality was assessed 3 days after treatment, compared to untreated control plants.

Spodoptera eridania = experiment: Southern armyworm (Spodoptera eridania) 2nd instar larvae, sprayed lima bean plant test; conditions: 96 h, 4 days after treatment, read-out: mortality in comparison with untreated controls
Protocol: B.4. Southern armyworm (Spodoptera eridania), 2nd instar larvae
The active compounds were formulated in cyclohexanone as a 10,000 ppm solution supplied in tubes. The tubes were inserted into an automated electrostatic sprayer equipped with an atomizing nozzle and they served as stock solutions for which lower dilutions were made in 50% acetone:50% water (v/v). A nonionic surfactant (Kinetic®) was included in the solution at a volume of 0.01% (v/v).
Lima bean plants (variety Sieva) were grown 2 plants to a pot and selected for treatment at the 1st true leaf stage. Test solutions were sprayed onto the foliage by an automated electrostatic plant sprayer equipped with an atomizing spray nozzle. The plants were dried in the sprayer fume hood and then removed from the sprayer. Each pot was placed into perforated plastic bags with a zip closure. About 10 to 11 armyworm larvae were placed into the bag and the bags zipped closed. Test plants were maintained in a growth room at about 25° C. and about 20-40% relative humidity for 4 days, avoiding direct exposure to fluorescent light (24 hour photoperiod) to prevent trapping of heat inside the bags. Mortality and reduced feeding were assessed 4 days after treatment, compared to untreated control plants.

CO/N=C(\C)CC1CSc2n(C)c(=O)c(-c3ccccc3)c([O-])[n+]21 (stereo not shown) [C-1, 3-[(2E)-2-methoxyiminopropyl]-8-methyl-7-oxo-6-phenyl-2,3-dihydrothiazolo[3,2-a]pyrimidin-4-ium-5-olate]
> 75%: mortality at 500 ppm (Plutella xylostella) | mortality at 800 ppm (Anthonomus grandis) | mortality at 500 ppm (Bemisia argentifolii) | mortality at 500 ppm (Spodoptera eridania)
